17 compounds from patent publication US20180099931A1 (AbbVie S.à.r.l., priority 2016, published 2018) can be followed below.

The target of this test is T1, F508delCFTR (Homo sapiens, UniProt P13569, DEL508-508).
T1 construct: expressed in transfected cells; host or cells: CFBE41o- human lung-derived epithelial cells (CFBE4lo-F508delCFTR-HRP), doxycycline-inducible
Briefly: Cell Surface Expression-Horse Radish Peroxidase (CSE-HRP) Assay.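 On Maximum % activity (with co-corrector): co-corrector and positive control are both the same reference corrector at 2 µM.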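 On Maximum % activity (without co-corrector): percent of the 2 µM on-plate positive control corrector response above DMSO.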 The format is cell-based. Particulars: for Maximum % activity (with co-corrector): with co-corrector (2 μM); for Maximum % activity (with co-corrector) / Emax: maximum at any tested concentration, normalized to on-plate positive control; for Emax: without co-corrector, read-out: Maximum % activity (without co-corrector).

Setting [1] is: test compound without co-corrector, read-out: EC50 (without co-corrector).
Setting [2] is: with co-corrector (2 μM of 3-[(2R,4R)-4-({[1-(2,2-difluoro-1,3-benzodioxol-5-yl)cyclopropyl]carbonyl}amino)-7-methoxy-3,4-dihydro-2H-chromen-2-yl]benzoic acid), read-out: EC50 (with co-corrector).

Read-outs that look alike come from different tables or passages of the source. Some results are limits rather than exact numbers.

T1 sequence (P13569 with tags, fused parts or gaps DEL508-508): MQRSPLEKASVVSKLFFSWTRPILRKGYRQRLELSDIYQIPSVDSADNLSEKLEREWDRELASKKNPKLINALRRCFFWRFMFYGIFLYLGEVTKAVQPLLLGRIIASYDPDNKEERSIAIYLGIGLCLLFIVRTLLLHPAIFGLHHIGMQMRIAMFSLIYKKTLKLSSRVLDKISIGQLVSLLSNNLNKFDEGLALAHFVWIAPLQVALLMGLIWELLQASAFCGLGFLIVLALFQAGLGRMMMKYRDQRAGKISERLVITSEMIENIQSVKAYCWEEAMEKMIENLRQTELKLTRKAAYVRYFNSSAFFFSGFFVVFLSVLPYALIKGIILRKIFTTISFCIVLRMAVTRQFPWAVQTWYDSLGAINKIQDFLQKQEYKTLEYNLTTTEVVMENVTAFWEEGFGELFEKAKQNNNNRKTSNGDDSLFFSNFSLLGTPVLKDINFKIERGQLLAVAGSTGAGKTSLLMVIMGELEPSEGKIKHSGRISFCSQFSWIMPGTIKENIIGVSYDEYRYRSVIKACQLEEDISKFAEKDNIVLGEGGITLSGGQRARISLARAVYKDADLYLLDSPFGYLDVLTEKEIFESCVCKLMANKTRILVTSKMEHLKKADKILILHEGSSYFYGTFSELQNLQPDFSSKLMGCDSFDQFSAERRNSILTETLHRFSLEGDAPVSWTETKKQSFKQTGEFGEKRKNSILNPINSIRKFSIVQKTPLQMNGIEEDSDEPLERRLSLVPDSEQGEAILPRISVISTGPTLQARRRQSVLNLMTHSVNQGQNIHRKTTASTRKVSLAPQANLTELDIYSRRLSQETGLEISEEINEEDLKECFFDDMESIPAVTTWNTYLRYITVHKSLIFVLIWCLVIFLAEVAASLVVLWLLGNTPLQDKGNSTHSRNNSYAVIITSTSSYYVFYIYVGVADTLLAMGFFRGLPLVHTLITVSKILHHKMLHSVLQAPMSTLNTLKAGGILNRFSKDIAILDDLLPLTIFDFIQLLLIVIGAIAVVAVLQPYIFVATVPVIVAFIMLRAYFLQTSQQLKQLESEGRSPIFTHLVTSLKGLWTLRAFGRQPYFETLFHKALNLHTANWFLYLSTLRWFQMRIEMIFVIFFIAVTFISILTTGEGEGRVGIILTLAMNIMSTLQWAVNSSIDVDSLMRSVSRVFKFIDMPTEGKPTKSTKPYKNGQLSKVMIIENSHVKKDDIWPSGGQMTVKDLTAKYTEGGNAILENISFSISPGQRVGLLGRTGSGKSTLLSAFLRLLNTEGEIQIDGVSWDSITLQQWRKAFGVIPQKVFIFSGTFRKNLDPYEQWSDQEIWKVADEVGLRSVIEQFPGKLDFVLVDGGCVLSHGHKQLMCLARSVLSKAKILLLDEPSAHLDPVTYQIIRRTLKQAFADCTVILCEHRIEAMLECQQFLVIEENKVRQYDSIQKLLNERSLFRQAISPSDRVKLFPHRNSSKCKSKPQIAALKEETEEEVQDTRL

Regarding `COc1ncc(C2CC2)cc1CN[C@H]1[C@H](C(C)(C)C)[C@@H](C(=O)O)N(C(=O)[C@@H]2CCCO2)[C@H]1c1ccccc1C(C)C` [Example 101, (2S,3S,4S,5S)-3-tert-butyl-4-{[(5-cyclopropyl-2-methoxypyridin-3-yl)methyl]amino}-1-[(2S)-oxolane-2-carbonyl]-5-[2-(propan-2-yl)phenyl]pyrrolidine-2-carboxylic acid], the “Maximum % activity (with co-corrector)” value is “+++ (≥350)” and the Emax was above 200%. The EC50 under setting [1] fell in the range of 1000 to 10000 nM. Besides, the EC50 under setting [2] was below 1000 nM.
On to `COc1ccc(C(C)(C)C)cc1CN[C@H]1[C@H](C(C)(C)C)[C@@H](C(=O)O)N(C(=O)C2CCC2)[C@H]1c1cccnc1N1CCC1` [Example 102, (2S,3S,4S,5S)-5-[2-(azetidin-1-yl)pyridin-3-yl]-3-tert-butyl-4-{[(5-tert-butyl-2-methoxyphenyl)methyl]amino}-1-(cyclobutanecarbonyl)pyrrolidine-2-carboxylic acid], for which the “Maximum % activity (with co-corrector)” value is on record as “+++ (≥350)” and the Emax lay in the range of 100 to 200%. In addition, the EC50 under setting [1] lay within 1000 to 10000 nM. For the same compound, the EC50 under setting [2] was 1000 to 10000 nM.
As for `COc1ncc(C2CCC2)cc1CN[C@H]1[C@H](C(C)(C)C)[C@@H](C(=O)O)N(C(=O)[C@@H]2CCCO2)[C@H]1c1ccccc1Cl` [Example 103, (2S,3S,4S,5S)-3-tert-butyl-5-(2-chlorophenyl)-4-{[(5-cyclobutyl-2-methoxypyridin-3-yl)methyl]amino}-1-[(2S)-oxolane-2-carbonyl]pyrrolidine-2-carboxylic acid], the “Maximum % activity (with co-corrector)” value is reported as “+++ (≥350)” and the Emax was in the range of 100 to 200%. Further, under setting [1], the EC50 is 1000 to 10000 nM. Under setting [2], the EC50 lay in the range of 1000 to 10000 nM.
As to `COc1ccc(C(C)(C)C)cc1CN[C@H]1[C@H](C(C)(C)C)[C@@H](C(=O)O)N(C(=O)[C@@H]2CCCO2)[C@H]1c1ccccc1C(C)C` [Example 104, (2S,3S,4S,5S)-3-tert-butyl-4-{[(5-tert-butyl-2-methoxyphenyl)methyl]amino}-1-[(2S)-oxolane-2-carbonyl]-5-[2-(propan-2-yl)phenyl]pyrrolidine-2-carboxylic acid], the “Maximum % activity (with co-corrector)” value is given as “+++ (≥350)” and the Emax is above 200%. In addition, the EC50 under setting [1] was 1000 to 10000 nM. Moreover, the EC50 under setting [2] is below 1000 nM.
In the case of `COc1ncc(C2CC2)cc1CN[C@H]1[C@H](C(C)(C)C)[C@@H](C(=O)O)N(C(=O)C2CCCCC2)[C@H]1c1ccccc1C` [Example 105, (2S,3S,4S,5S)-3-tert-butyl-1-(cyclohexanecarbonyl)-4-{[(5-cyclopropyl-2-methoxypyridin-3-yl)methyl]amino}-5-(2-methylphenyl)pyrrolidine-2-carboxylic acid], the “Maximum % activity (with co-corrector)” value is recorded as “+++ (≥350)” and the Emax was above 200%. Also, the EC50 under setting [1] fell in the range of 1000 to 10000 nM. Further, the EC50 under setting [2] is below 1000 nM.
Consider `COc1ncc(C2CCC2)cc1CN[C@H]1[C@H](C(C)(C)C)[C@@H](C(=O)O)N(C(=O)[C@@H]2CCCO2)[C@H]1c1ccccc1Br` [Example 106, (2S,3S,4S,5S)-5-(2-bromophenyl)-3-tert-butyl-4-{[(5-cyclobutyl-2-methoxypyridin-3-yl)methyl]amino}-1-[(2S)-oxolane-2-carbonyl]pyrrolidine-2-carboxylic acid], for which the “Maximum % activity (with co-corrector)” value is recorded as “+++ (≥350)” and the Emax lay within 100 to 200%. The EC50 under setting [1] lay within 1000 to 10000 nM. Also, the EC50 under setting [2] fell in the range of 1000 to 10000 nM.
As for `COc1ncc(C2CCC2)cc1CN[C@H]1[C@H](C(C)(C)C)[C@@H](C(=O)O)N(C(=O)[C@@H]2CCCO2)[C@H]1c1ccccc1C1CC1` [Example 107, (2S,3S,4S,5S)-3-tert-butyl-4-{[(5-cyclobutyl-2-methoxypyridin-3-yl)methyl]amino}-5-(2-cyclopropylphenyl)-1-[(2S)-oxolane-2-carbonyl]pyrrolidine-2-carboxylic acid], the “Maximum % activity (with co-corrector)” value is recorded as “+++ (≥350)” and the Emax is above 200%. Also, the EC50 under setting [1] lay within 1000 to 10000 nM. Also, the EC50 under setting [2] was below 1000 nM.
Regarding `COc1ccc(C(C)(C)C)cc1CN[C@H]1[C@H](C(C)(C)C)[C@@H](C(=O)O)N(C(=O)[C@@H]2CCCO2)[C@H]1c1ccccc1C1CC1` [Example 108, (2S,3S,4S,5S)-3-tert-butyl-4-{[(5-tert-butyl-2-methoxyphenyl)methyl]amino}-5-(2-cyclopropylphenyl)-1-[(2S)-oxolane-2-carbonyl]pyrrolidine-2-carboxylic acid], the “Maximum % activity (with co-corrector)” value was “+++ (≥350)” and the Emax is above 200%. Further, the EC50 under setting [1] was 1000 to 10000 nM. Also, the EC50 under setting [2] was 1000 to 10000 nM.
`COc1ccc(C2(C)CCC2)cc1CN[C@H]1[C@H](C(C)(C)C)[C@@H](C(=O)O)N(C(=O)[C@@H]2CCCCO2)[C@H]1c1ccccc1C` [Example 109, (2S,3S,4S,5S)-3-tert-butyl-4-({[2-methoxy-5-(1-methylcyclobutyl)phenyl]methyl}amino)-5-(2-methylphenyl)-1-[(2S)-oxane-2-carbonyl]pyrrolidine-2-carboxylic acid]: the “Maximum % activity (with co-corrector)” value is “+++ (≥350)” and the Emax was above 200%. Under setting [1], the EC50 was below 1000 nM. Also, the EC50 under setting [2] is below 1000 nM.
In the case of `COc1ccc(C(C)(C)C)cc1CN[C@H]1[C@H](C(C)(C)C)[C@@H](C(=O)O)N(C(=O)[C@@H]2CCCCO2)[C@H]1c1ccccc1C` [Example 110, (2S,3S,4S,5S)-3-tert-butyl-4-{[(5-tert-butyl-2-methoxyphenyl)methyl]amino}-5-(2-methylphenyl)-1-[(2S)-oxane-2-carbonyl]pyrrolidine-2-carboxylic acid], the “Maximum % activity (with co-corrector)” value was “+++ (≥350)” and the Emax is above 200%. Also, the EC50 under setting [1] lay within 1000 to 10000 nM. Moreover, the EC50 under setting [2] is below 1000 nM.
Taken in the same sequence, the figures for `CCc1ccccc1[C@H]1[C@@H](NCc2cc(C3CCC3)cnc2OC)[C@H](C(C)(C)C)[C@@H](C(=O)O)N1C(=O)[C@@H]1CCCO1` [Example 111, (2S,3S,4S,5S)-3-tert-butyl-4-{[(5-cyclobutyl-2-methoxypyridin-3-yl)methyl]amino}-5-(2-ethylphenyl)-1-[(2S)-oxolane-2-carbonyl]pyrrolidine-2-carboxylic acid] were “+++ (≥350)”, above 200%, 1000 to 10000 nM and 1000 to 10000 nM.
Regarding `COc1ccc(C2(C)CCC2)cc1CN[C@H]1[C@H](C(C)(C)C)[C@@H](C(=O)O)N(C(=O)[C@@H]2CCCO2)[C@H]1c1ccccc1C1CC1` [Example 112, (2S,3S,4S,5S)-3-tert-butyl-5-(2-cyclopropylphenyl)-4-({[2-methoxy-5-(1-methylcyclobutyl)phenyl]methyl}amino)-1-[(2S)-oxolane-2-carbonyl]pyrrolidine-2-carboxylic acid], the “Maximum % activity (with co-corrector)” value was “+++ (≥350)” and the Emax was above 200%. For the same compound, the 50% effective concentration (EC50) under setting [1] was 1000 to 10000 nM. In addition, the concentration for a half-maximal effect (EC50) under setting [2] is below 1000 nM.
On to `COc1ccc(C(C)(C)C)cc1CN[C@H]1[C@H](C(C)(C)C)[C@@H](C(=O)O)N(C(=O)[C@@H]2CCCCO2)[C@H]1c1ccccc1Br` [Example 113, (2S,3S,4S,5S)-5-(2-bromophenyl)-3-tert-butyl-4-{[(5-tert-butyl-2-methoxyphenyl)methyl]amino}-1-[(2S)-oxane-2-carbonyl]pyrrolidine-2-carboxylic acid], for which the “Maximum % activity (with co-corrector)” value is on record as “+++ (≥350)” and the Emax is above 200%. Also, the EC50 under setting [1] was in the range of 1000 to 10000 nM. The EC50 under setting [2] was below 1000 nM.
As for `COc1ncc(C(F)(F)F)cc1N[C@H]1[C@H](C(C)(C)C)[C@@H](C(=O)O)N(C(=O)C2CCCCC2)[C@H]1c1ccccc1` [Example 114, (2S,3S,4S,5S)-3-tert-butyl-1-(cyclohexanecarbonyl)-4-{[2-methoxy-5-(trifluoromethyl)pyridin-3-yl]amino}-5-phenylpyrrolidine-2-carboxylic acid], the “Maximum % activity (with co-corrector)” value is given as “+++ (≥350)” and the Emax was below 100%. The EC50 under setting [1] was below 1000 nM. For the same compound, the 50% effective concentration (EC50) under setting [2] is below 1000 nM.
Turning to `COc1ncc(C2CC2)cc1CN[C@H]1[C@H](C(C)(C)C)[C@@H](C(=O)O)N(C(=O)[C@@H]2CCCCO2)[C@H]1c1ccccc1C(C)C` [Example 115, (2S,3S,4S,5S)-3-tert-butyl-4-{[(5-cyclopropyl-2-methoxypyridin-3-yl)methyl]amino}-1-[(2S)-oxane-2-carbonyl]-5-[2-(propan-2-yl)phenyl]pyrrolidine-2-carboxylic acid], the “Maximum % activity (with co-corrector)” value is listed as “+++ (≥350)” and the Emax is above 200%. The EC50 under setting [1] lay within 1000 to 10000 nM. Besides, the EC50 under setting [2] was below 1000 nM.
`COc1ncc(C(F)(F)F)cc1CN[C@H]1[C@H](C(C)(C)C)[C@@H](C(=O)O)N(C(=O)[C@@H]2CCCCO2)[C@H]1c1ccccc1C1CC1` [Example 116, (2S,3S,4S,5S)-3-tert-butyl-5-(2-cyclopropylphenyl)-4-({[2-methoxy-5-(trifluoromethyl)pyridin-3-yl]methyl}amino)-1-[(2S)-oxane-2-carbonyl]pyrrolidine-2-carboxylic acid]: the “Maximum % activity (with co-corrector)” value is “+++ (≥350)” and the Emax was above 200%. Besides, the EC50 under setting [1] lay in the range of 1000 to 10000 nM. For the same compound, the EC50 under setting [2] was below 1000 nM.
Consider `COc1ncc(C2CCC2)cc1CN[C@H]1[C@H](C(C)(C)C)[C@@H](C(=O)O)N(C(=O)C2CCCCC2)[C@H]1c1ccccc1C(C)C` [Example 117, (2S,3S,4S,5S)-3-tert-butyl-4-{[(5-cyclobutyl-2-methoxypyridin-3-yl)methyl]amino}-1-(cyclohexanecarbonyl)-5-[2-(propan-2-yl)phenyl]pyrrolidine-2-carboxylic acid], for which the “Maximum % activity (with co-corrector)” value is listed as “+++ (≥350)” and the Emax was above 200%. Further, under setting [1], the EC50 is below 1000 nM. Moreover, the EC50 under setting [2] was below 1000 nM.
